According to patent EP4818171A1 (Apeiron Therapeutics (Hong Kong) Ltd., priority 2024, dated 2025):
Where two headings read alike, the source gives them in different places.

Assays:
[1] = system: HCT-116 MTAP(-/-)deleted cells; experiment: Inhibitory activity on proliferation of HCT-116 MTAP(-/-)deleted cells (Cell-Titer Glo); settings: read-out: IC50 (nM) HCT-116 MTAP(-/-)deleted
Procedure: Only cells in the logarithmic growth phase could be used for the test. […] The cell concentration was adjusted, rendering that cells were inoculated into a 384-well plate at 40 µL per well and incubated overnight at 37°C and 5% carbon dioxide. 40 nL of the compound was added to each well to reach a final concentration of 0-10,000 nM (starting concentration 10,000 nM, 3-fold dilution, 10 points), and the cell plate with 0.1% DMSO content was incubated at 37°C and 5% carbon dioxide for 8 d. 40 µL of Cell-Titer Glo reagent was added to test cell viability.

[2] = system: LU99 MTAP overexpressing cells; experiment: Inhibitory activity on proliferation of LU99 MTAP overexpressing cells (Cell-Titer Glo); type: cell-based; settings: 6 d incubation
Procedure: Materials and cells: LU99 MTAP overexpressing cell line was purchased from Kyinno Biotechnology (China); cell culture medium and fetal bovine serum were purchased from Thermo Fisher Scientific (USA); 384-well plates were purchased from PerkinElmer (USA); Cell-Titer Glo kits were purchased from Promega (USA).
Cell culture: LU99 MTAP overexpressing cells were cultured with medium containing 10% fetal bovine serum at 37°C in 5% carbon dioxide. Only cells in the logarithmic growth phase could be used for the test.
Test of inhibitory activity on cell proliferation: The Cell-Titer Glo kit was used to test the proliferation inhibitory activity of the compounds on LU99 MTAP overexpressing cells. The cell concentration was adjusted, rendering that cells were inoculated into a 384-well plate at 40 µL per well and incubated overnight at 37°C and 5% carbon dioxide. 40 nL of the compound was added to each well to reach a final concentration of 0-10,000 nM (starting concentration 10,000 nM, 2.5-fold dilution, 10 points), and the cell plate with 0.2% DMSO content was incubated at 37°C and 5% carbon dioxide for 6 d. 40 µL of Cell-Titer Glo reagent was added to test cell viability.

HCT-116 wild-type cells = experiment: Inhibitory activity on proliferation of HCT-116 wild-type cells (Cell-Titer Glo); type: cell-based; settings: 8 d incubation
Procedure: Cell culture: HCT-116 wild-type cells were cultured with a RPMI-1640 medium containing 10% fetal bovine serum+1% penicillin-streptomycin at 37°C in 5% carbon dioxide. Only cells in the logarithmic growth phase could be used for the test.
Test of cell proliferation activity: Cell-Titer Glo kit was used to test the proliferation inhibitory activity of the compound on HCT-116 wild-type cells. The cell concentration was adjusted, rendering that cells were inoculated into a 384-well plate at 40 µL per well and incubated overnight at 37°C and 5% carbon dioxide. 40 nL of the compound was added to each well to reach a final concentration of 0-10,000 nM (starting concentration 10,000 nM, 2-fold dilution, 10 points), and the cell plate with 0.1% DMSO content was incubated at 37°C and 5% carbon dioxide for 8 d. 40 µL of Cell-Titer Glo reagent was added to test cell viability.

[3] = system: LU99 MTAP(-/-)deleted cells; experiment: Inhibitory activity on proliferation of LU99 MTAP(-/-)deleted cells (Cell-Titer Glo)
Procedure: Materials and cells: LU99 MTAP deleted cell line was purchased from Kyinno Biotechnology (China); cell culture medium and fetal bovine serum were purchased from Thermo Fisher Scientific (USA); 384-well plates were purchased from PerkinElmer (USA); Cell-Titer Glo kits were purchased from Promega (USA). Cell culture: LU99 MTAP(-/-)deleted cells were cultured with medium containing 10% fetal bovine serum at 37°C in 5% carbon dioxide. Only cells in the logarithmic growth phase could be used for the test.
Test of inhibitory activity on cell proliferation: The Cell-Titer Glo kit was used to test the proliferation inhibitory activity of the compounds on LU99 MTAP(-/-)deleted cells. The cell concentration was adjusted, rendering that cells were inoculated into a 384-well plate at 40 µL per well and incubated overnight at 37°C and 5% carbon dioxide. […] 40 µL of Cell-Titer Glo reagent was added to test cell viability.

[4] = read-out: IC50 (nM) Lu99 MTAP(-/-)Deleted, LU99 MTAP(-/-)deleted cells, 6 d incubation, Cell-Titer Glo
[5] = Homo sapiens, Lu-99, 144 h, read-out: IC50 (nM) Lu99 MTAP(-/-)Deleted, LU99 MTAP(-/-)deleted cells, 6 d incubation, Cell-Titer Glo

Compound	IC50 ([2]; Homo sapiens, Lu-99, 144 h)	IC50 [3, 5]	also measured
4-amino-N-methyl-N-(7'-(trifluoromethyl)spiro[cyclobutane-1,1'-isochroman]-4'-yl)imidazo[1,5-a]quinoxaline-8-carboxamide [Example 1]			IC50 ([1]; HCT-116 MTAP(-/-)deleted cells, 8 d incubation, Cell-Titer Glo): 10 nM; IC50 [2]: 652 nM; IC50 (HCT-116 wild-type cells): 959 nM; IC50 [3, 4]: 13.2 nM
CN(C(=O)c1ccc2nc(N)c3cncn3c2c1)[C@H]1COC2(CCC2)c2cc(C(F)(F)F)ccc21 (stereo in doubt) [Example 4, (R)-4-amino-N-methyl-N-(7'-(trifluoromethyl)spiro[cyclobutane-1,1'-isochroman]-4'-yl)imidazo[1,5-a]quinoxaline-8-carboxamide]			IC50 [2]: 742 nM; IC50 [3, 4]: 1100 nM
CN(C(=O)c1ccc2nc(N)c3cncn3c2c1)[C@H]1COC2(CCC2)c2cc(C(F)(F)F)ccc21 [Example 3, (R)-4-amino-N-methyl-N-(7'-(trifluoromethyl)spiro[cyclobutane-1,1'-isochroman]-4'-yl)imidazo[1,5-a]quinoxaline-8-carboxamide]	624 nM		IC50 ([1]; Homo sapiens, HCT-116, 192 h): 5.1 nM; IC50 (HCT-116 wild-type cells; Homo sapiens, HCT-116, 192 h): 636 nM; IC50 [3, 4]: 8.3 nM
CN(C(=O)c1ccc2nc(N)c3cncn3c2c1)[C@@H]1COC2(CCC2)c2nc(N3CCOCC3)ccc21 [Example 5, (S)-4-amino-N-methyl-N-(2'-morpholinyl-5',6'-dihydrospiro[cyclobutane-1,8'-pyrano[3,4-b]pyridine]-5'-yl)imidazo[1,5-a]quinoxaline-8-carboxamide]	2360 nM	961 nM	
CN(C(=O)c1ccc2nc(N)c3cncn3c2c1)C1COC2(CCC2)c2cc(C(F)(F)F)ccc21 (stereo not drawn) [Example 7, 4-Amino-N-methyl-N-(7'-(trifluoromethyl)spiro[cyclobutane-1,1'-isochroman]-4'-yl)imidazo[1,5-a]quinoxaline-8-carboxamide]	624 nM	8.3 nM	IC50 ([1]; Homo sapiens, HCT-116, 192 h): 5.1 nM; IC50 (HCT-116 wild-type cells; Homo sapiens, HCT-116, 192 h): 636 nM
CN(C(=O)c1ccc2nc(N)c3cncn3c2c1)C1COC2(CC2)c2cc(C(F)(F)F)ccc21 (stereo not drawn) [Example 8, 4-Amino-N-methyl-N-(7'-(trifluoromethyl)spiro[cyclopropane-1,1'-isochroman]-4'-yl)imidazo[1,5-a]quinoxaline-8-carboxamide]	2310 nM	13.4 nM	IC50 ([1]; Homo sapiens, HCT-116, 192 h): 9 nM; IC50 (HCT-116 wild-type cells; Homo sapiens, HCT-116, 192 h): 3930 nM
CN(C(=O)c1cc2c(cc1F)nc(N)c1cncn12)[C@@H]1COC2(CCC2)c2cc(C(F)(F)F)ccc21 [Example 15, (S)-4-amino-7-fluoro-N-methyl-N-(7'-(trifluoromethyl)spiro[cyclobutane-1,1'-isochroman]-4'-yl)imidazo[1,5-a]quinoxaline-8-carboxamide]	425 nM	7.1 nM	
CN(C(=O)c1ccc2nc(N)c3cncn3c2c1)C1COC(C)(C)c2c1ccc1c2OCO1 (stereo not drawn) [Example 18]	756 nM	99.6 nM	
CN(C(=O)c1ccc2nc(N)c3cncn3c2c1)C1COC2(CCCOC2)c2cc(C(F)(F)F)ccc21 (stereo not drawn) [Example 24, 4-Amino-N-methyl-N-(7-(trifluoromethyl)-5',6'-dihydro-2'H,4'H-spiro[isochroman-1,3'-pyran]-4-yl)imidazo[1,5-a]quinoxaline-8-carboxamide]	1470 nM	9.54 nM	
CN(C(=O)c1cc2c(cc1F)nc(N)c1cncn12)C1COC2(CCCOC2)c2cc(C(F)(F)F)ccc21 (stereo not drawn) [Example 50, 4-Amino-7-fluoro-N-methyl-N-(7-(trifluoromethyl)-5',6'-dihydro-2'H,4'H-spiro[isochroman-1,3'-pyran]-4-yl)imidazo[1,5-a]quinoxaline-8-carboxamide]	591 nM	7.13 nM	
CN(C(=O)c1ccc2nc(N)c3cncn3c2c1)C1COC(C)(C)c2cc(C(F)(F)F)ncc21 (stereo not drawn) [Example 99, 4-Amino-N-(1,1-dimethyl-7-(trifluoromethyl)-3,4-dihydro-1H-pyrano[4,3-c]pyridin-4-yl)-N-methylimidazo[1,5-a]quinoxaline-8-carboxamide]	2970 nM	152 nM	
